Laboratory results taken from PubChem BioAssay (NCI).
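GI50: concentration for 50% inhibition of growth. Definition used: TGI = concentration required for complete inhibition of growth.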

What was measured:
Experiment in all cases: inhibition of tumour cell growth, NCI panel, 384-well format
786-0 renal = test system: 786-0 renal
A498 renal = test system: A498 renal
A549 NSCLC = test system: A549 NSCLC
ACHN renal = test system: ACHN renal
BT-549 breast = test system: BT-549 breast
CAKI-1 renal = test system: CAKI-1 renal
CCRF-CEM leukemia = test system: CCRF-CEM leukemia
COLO 205 colon = test system: COLO 205 colon
DU-145 prostate = test system: DU-145 prostate
EKVX NSCLC = test system: EKVX NSCLC
HCC-2998 colon = test system: HCC-2998 colon
HCT-116 colon = test system: HCT-116 colon
HCT-15 colon = test system: HCT-15 colon
HL-60(TB) leukemia = test system: HL-60(TB) leukemia
HOP-62 NSCLC = test system: HOP-62 NSCLC
HOP-92 NSCLC = test system: HOP-92 NSCLC
HS 578T breast = test system: HS 578T breast
HT29 colon = test system: HT29 colon
IGROV1 ovarian = test system: IGROV1 ovarian
KM12 colon = test system: KM12 colon
LOX IMVI melanoma = test system: LOX IMVI melanoma
M14 melanoma = test system: M14 melanoma
MALME-3M melanoma = test system: MALME-3M melanoma
MCF7 breast = test system: MCF7 breast
MDA-MB-231 breast = test system: MDA-MB-231 breast
MDA-MB-435 melanoma = test system: MDA-MB-435 melanoma
MDA-MB-468 breast = test system: MDA-MB-468 breast
MOLT-4 leukemia = test system: MOLT-4 leukemia
NCI-H226 lung = test system: NCI-H226 lung

## COc1cc2ncnc(Oc3cccc(NC(=O)Nc4cc(C(C)(C)C(F)(F)F)on4)c3)c2cc1OC
786-0 renal
  GI50: 1520 nM
  TGI: 3770 nM
A498 renal
  GI50: 810 nM
  TGI: 5310 nM
A549 NSCLC
  GI50: 1260 nM
  TGI: 5570 nM
ACHN renal
  GI50: 399 nM
  TGI: 2390 nM
BT-549 breast
  GI50: 1660 nM
  TGI: 3080 nM
CAKI-1 renal
  GI50: 613 nM
  TGI: 3600 nM
CCRF-CEM leukemia
  GI50: 1450 nM
  TGI: 2770 nM
COLO 205 colon
  GI50: 48.1 nM
  TGI: 1590 nM
DU-145 prostate
  GI50: 2790 nM
  TGI: 11000 nM
EKVX NSCLC
  GI50: 1050 nM
  TGI: 3290 nM
HCC-2998 colon
  GI50: 1230 nM
  TGI: 2570 nM
HCT-116 colon
  GI50: 581 nM
  TGI: 1970 nM
HCT-15 colon
  GI50: 1860 nM
  TGI: 6280 nM
HL-60(TB) leukemia
  GI50: 309 nM
  TGI: 1750 nM
HOP-62 NSCLC
  GI50: 1530 nM
  TGI: 3010 nM
HOP-92 NSCLC
  GI50: 1260 nM
  TGI: 2550 nM
HS 578T breast
  GI50: 1540 nM
  TGI: 2990 nM
HT29 colon
  GI50: 174 nM
  TGI: 1650 nM
IGROV1 ovarian
  GI50: 222 nM
  TGI: 1270 nM
KM12 colon
  GI50: 1920 nM
  TGI: 4430 nM
LOX IMVI melanoma
  GI50: 187 nM
  TGI: 1020 nM
M14 melanoma
  GI50: 19.3 nM
  TGI: 214 nM
MALME-3M melanoma
  GI50: 14.6 nM
  TGI: 69.3 nM
MCF7 breast
  GI50: 1970 nM
  TGI: 7650 nM
MDA-MB-231 breast
  GI50: 192 nM
  TGI: 3980 nM
MDA-MB-435 melanoma
  GI50: 118 nM
  TGI: 1940 nM
MDA-MB-468 breast
  GI50: 747 nM
  TGI: 2310 nM
MOLT-4 leukemia
  GI50: 1110 nM
  TGI: 2310 nM
NCI-H226 lung
  GI50: 384 nM
